Earlier results as cited in patent US12280058B2, “Gasotransmitter metabolites and Alzheimer's disease” (Board of Supervisors of Louisiana State University and …, priority 2020, dated 2025).

Key:
CSE = CSE (Homo sapiens, UniProt P32929); settings: read-out: IC50 (CSE inhibitor)
infarct = settings: administration

Sequence of CSE (P32929 whole entry, species assumed): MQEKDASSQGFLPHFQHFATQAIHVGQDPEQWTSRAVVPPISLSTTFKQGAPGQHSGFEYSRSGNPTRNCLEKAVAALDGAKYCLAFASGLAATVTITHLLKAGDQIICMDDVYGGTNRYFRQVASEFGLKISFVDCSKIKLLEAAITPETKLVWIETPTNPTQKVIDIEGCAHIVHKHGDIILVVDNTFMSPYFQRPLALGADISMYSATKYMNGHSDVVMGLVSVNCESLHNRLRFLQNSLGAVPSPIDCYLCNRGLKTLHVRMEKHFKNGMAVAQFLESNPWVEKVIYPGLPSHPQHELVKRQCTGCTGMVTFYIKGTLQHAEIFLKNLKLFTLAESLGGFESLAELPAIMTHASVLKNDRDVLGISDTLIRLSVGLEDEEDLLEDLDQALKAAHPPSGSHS

| IC50 (CSE) [µM] | Compound | infarct volume / size of infarct (infarct) |
| --- | --- | --- |
| 40 | C#CC[C@H](N)C(=O)O | – |
| 30 | CCOc1ccc2nc(Sc3nc(Nc4cccc([N+](=O)[O-])c4)nc(Nc4cc(OC)ccc4OC)n3)sc2c1 [compound 1157172, 2-[(4-(2,5-dimethoxyanilino)-6-(3-nitroanilino)-1,3,5-triazin-2-yl)sulfanyl]-6-ethoxy-1,3-benzothiazole] | – |
| < 1 | NCCO/C=C/[C@H](N)C(=O)O [L-aminoethoxyvinylglycine] | – |
| – | S [sodium hydrosulfide] | increased infarct volume |
